Data: patent US9920010B2, “CXCR7 receptor modulators” (IDORSIA PHARMACEUTICALS LTD, priority 2013, dated 2018)

target: T1, CXCR7 (Homo sapiens, UniProt P25106); experiment: PathHunter CHO-K1 CXCR7 b-arrestin recruitment assay (CXCR7 agonistic activity); format: cell-based; conditions: PathHunter CHO-K1 CXCR7 b-arrestin cell line
T1 construct: host or cells: CHO-K1 (PathHunter CHO-K1 CXCR7 b-arrestin cell line, stably transfected)
Procedure, shortened: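 Stable CHO-K1 line with C-terminally ProLink-tagged CXCR7 and β-arrestin 2–EA fusion; β-arrestin recruitment restores β-gal activity, read by chemiluminescence after 1 h RT detection. Cells seeded 24 h, starved in OPTIMEM 3–4 h, exposed to compounds 90 min at 37 °C in HBSS/HEPES/BSA. Geometric-mean EC50 from repeated measurements.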

T1 sequence (P25106 whole entry): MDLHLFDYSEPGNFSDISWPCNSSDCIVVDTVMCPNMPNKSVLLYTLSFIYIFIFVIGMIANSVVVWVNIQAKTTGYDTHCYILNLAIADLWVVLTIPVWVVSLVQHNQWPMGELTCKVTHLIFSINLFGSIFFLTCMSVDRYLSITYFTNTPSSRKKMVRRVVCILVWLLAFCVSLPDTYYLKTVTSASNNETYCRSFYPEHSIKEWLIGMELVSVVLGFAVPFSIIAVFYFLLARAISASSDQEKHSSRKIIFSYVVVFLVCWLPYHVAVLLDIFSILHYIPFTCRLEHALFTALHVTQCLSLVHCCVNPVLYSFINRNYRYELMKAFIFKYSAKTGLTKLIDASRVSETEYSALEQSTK
T1 sequence (P32121 whole entry partner): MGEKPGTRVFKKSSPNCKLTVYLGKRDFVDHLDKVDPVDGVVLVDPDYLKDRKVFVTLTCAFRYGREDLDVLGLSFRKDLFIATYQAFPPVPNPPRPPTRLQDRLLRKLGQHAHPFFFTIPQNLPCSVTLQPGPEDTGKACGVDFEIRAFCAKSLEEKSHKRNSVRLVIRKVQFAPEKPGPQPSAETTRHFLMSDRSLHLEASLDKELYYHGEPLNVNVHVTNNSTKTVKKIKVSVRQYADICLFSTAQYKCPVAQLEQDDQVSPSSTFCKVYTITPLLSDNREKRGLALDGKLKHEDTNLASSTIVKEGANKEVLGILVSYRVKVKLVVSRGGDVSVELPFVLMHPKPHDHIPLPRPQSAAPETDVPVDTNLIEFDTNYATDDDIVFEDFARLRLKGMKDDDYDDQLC

Structure (SMILES) | EC50
CC1c2cccc(NCC(=O)N(CCN(C)C)Cc3ccccc3C(F)(F)F)c2CCN1CC1CC1 (single isomer, unassigned) [Example 211b, (R)- or (S)-2-((2-(Cyclopropylmethyl)-1-methyl-1,2,3,4-tetrahydroisoquinolin-5-yl)amino)-N-(2-(dimethylamino)ethyl)-N-(2-(trifluoromethyl)benzyl)acetamide] | 0.006 µM
O=C(CNc1cccc2c1CCN(CC1CC1)C2)N(CCN1CCCCCC1)Cc1ccccc1C(F)(F)F [Example 218, N-(2-Azepan-1-yl-ethyl)-2-(2-cyclopropylmethyl-1,2,3,4-tetrahydro-isoquinolin-5-ylamino)-N-(2-trifluoromethyl-benzyl)-acetamide] | 0.002 µM
CCN(Cc1ccccc1Cl)C(=O)/C=C/c1cccc2c1CCN(C(=O)OC(C)(C)C)C2 [Example 92, 5-{(E)-2-[(2-Chloro-benzyl)-ethyl-carbamoyl]-vinyl}-3,4-dihydro-1H-isoquinoline-2-carboxylic acid tert-butyl ester] | 0.413 µM
COc1ccc(CCN(CCN(C)C)C(=O)CNc2cccc3c2CCN(CC2CC2)C3)cc1OC [Example 59, 2-(2-Cyclopropylmethyl-1,2,3,4-tetrahydro-isoquinolin-5-ylamino)-N-[2-(3,4-dimethoxy-phenyl)-ethyl]-N-(2-dimethylamino-ethyl)-acetamide] | 0.147 µM
CN(C)CCN(Cc1ccccc1)C(=O)COc1cccc2c1CN(C)CC2 [Example 201, N-Benzyl-N-(2-dimethylamino-ethyl)-2-(2-methyl-1,2,3,4-tetrahydro-isoquinolin-8-yloxy)-acetamide] | 0.027 µM
CN(C)CCN(Cc1ccccc1Cl)C(=O)COc1cccc2c1CCN(CC1CC1)C2 [compound 172, N-(2-Chloro-benzyl)-2-(2-cyclopropylmethyl-1,2,3,4-tetrahydro-isoquinolin-5-yloxy)-N-(2-dimethylamino-ethyl)-acetamide] | 0.002 µM
O=C(CNc1cccc2c1CCN(CC1CC1)C2)N(CCN1CCCCC1)Cc1ccccc1C(F)(F)F [Example 217, 2-(2-Cyclopropylmethyl-1,2,3,4-tetrahydro-isoquinolin-5-ylamino)-N-(2-piperidin-1-yl-ethyl)-N-(2-trifluoromethyl-benzyl)-acetamide] | 0.002 µM
CN(C)CCN(Cc1ccccc1C(F)(F)F)C(=O)CNc1cccc2c1CN(C(=O)c1ccccc1)CC2 [compound 552, 2-(2-Benzoyl-1,2,3,4-tetrahydro-isoquinolin-8-ylamino)-N-(2-dimethylamino-ethyl)-N-(2-trifluoromethyl-benzyl)-acetamide] | 0.004 µM
O=C(CNc1cccc2c1CCN(CC1CC1)C2)N(CCN1CCC(F)(F)C1)Cc1ncccc1C(F)(F)F [Example 284, 2-(2-Cyclopropylmethyl-1,2,3,4-tetrahydro-isoquinolin-5-ylamino)-N-[2-(3,3-difluoro-pyrrolidin-1-yl)-ethyl]-N-(3-trifluoromethyl-pyridin-2-ylmethyl)-acetamide] | 0.018 µM
CN(C)CCN(Cc1ncccc1Br)C(=O)CNc1cccc2c1CN(CC1CC1)CC2 [compound 486, N-(3-Bromo-pyridin-2-ylmethyl)-2-(2-cyclopropylmethyl-1,2,3,4-tetrahydro-isoquinolin-8-ylamino)-N-(2-dimethylamino-ethyl)-acetamide] | 0.005 µM
O=C(CNc1cccc2c1CCN(CC1CC1)C2)N(CCN1CCC(F)(F)CC1)Cc1ccccc1Cl [Example 248, N-(2-Chloro-benzyl)-2-(2-cyclopropylmethyl-1,2,3,4-tetrahydro-isoquinolin-5-ylamino)-N-[2-(4,4-difluoro-piperidin-1-yl)-ethyl]-acetamide] | 0.032 µM
CC(C)C(=O)N1CCc2c(cccc2NCC(=O)N(CCN(C)C)Cc2ccccc2)C1 [compound 115] | 0.054 µM
CCOC(=O)[C@@H]1C[C@H]1CN(Cc1ccccc1C(F)(F)F)C(=O)CNc1cccc2c1CCN(CC1CC1)C2 (racemic) [Example 81, rac-trans-2-{[[2-(2-Cyclopropylmethyl-1,2,3,4-tetrahydro-isoquinolin-5-ylamino)-acetyl]-(2-trifluoromethyl-benzyl)-amino]-methyl}-cyclopropanecarboxylic acid ethyl ester] | 0.126 µM
CN(C)CCN(Cc1ncccc1C(F)(F)F)C(=O)CNc1cccc2c1CCN(C1CCC1)C2 [Example 366, 2-(2-Cyclobutyl-1,2,3,4-tetrahydro-isoquinolin-5-ylamino)-N-(2-dimethylamino-ethyl)-N-(3-trifluoromethyl-pyridin-2-ylmethyl)-acetamide] | 0.002 µM
CN(C)CCCN(Cc1ccccc1)C(=O)CNc1cccc2c1CCN(CC1CC1)C2 [Example 37, N-Benzyl-2-(2-cyclopropylmethyl-1,2,3,4-tetrahydro-isoquinolin-5-ylamino)-N-(3-dimethylamino-propyl)-acetamide] | 0.004 µM
CN1CCC(N(Cc2ccccc2C(F)(F)F)C(=O)CNc2cccc3c2CN(CC2CC2)CC3(C)C)CC1 [compound 200] | 0.235 µM
CCN1CCc2cccc(NCC(=O)N(CCN(C)C)Cc3cccc(Cl)c3)c2C1 [compound 501] | 0.054 µM

Structure (SMILES) | EC50
CN(C)CCN(Cc1ccccc1C(F)(F)F)C(=O)CNc1cccc2c1CCN(C(=O)c1ccco1)C2 [Example 572, N-(2-Dimethylamino-ethyl)-2-[2-(furan-2-carbonyl)-1,2,3,4-tetrahydro-isoquinolin-5-ylamino]-N-(2-trifluoromethyl-benzyl)-acetamide] | 0.005 µM
O=C(CNc1cccc2c1CN(CC1CC1)CC2)N(CCN1CCCC(F)(F)C1)Cc1ccccc1C(F)(F)F [compound 478] | 0.092 µM
O=C(Cc1cccc2c1CCN(CC1CC1)C2)N(CCN1CCCC1)Cc1ccccc1 [Example 3, N-Benzyl-2-(2-cyclopropylmethyl-1,2,3,4-tetrahydro-isoquinolin-5-yl)-N-(2-pyrrolidin-1-yl-ethyl)-acetamide] | 0.042 µM
COCCN1CCc2c(CCC(=O)N(Cc3ccccc3C(F)(F)F)CC(C)(C)O)cccc2C1 [Example 341, N-(2-Hydroxy-2-methyl-propyl)-3-[2-(2-methoxy-ethyl)-1,2,3,4-tetrahydro-isoquinolin-5-yl]-N-(2-trifluoromethyl-benzyl)-propionamide] | 0.397 µM
CCC(=O)N1CCc2c(cccc2NCC(=O)N(CCN(C)C)Cc2ccccc2OC)C1 [Example 28, N-(2-Dimethylamino-ethyl)-N-(2-methoxy-benzyl)-2-(2-propionyl-1,2,3,4-tetrahydro-isoquinolin-5-ylamino)-acetamide] | 0.063 µM
CCN1CCc2cccc(NCC(=O)N(CCN(C)C)Cc3ccc(F)cn3)c2C1 [compound 529] | 0.174 µM
CCN(CC)CCN(Cc1ccccc1C(F)(F)F)C(=O)CNc1cccc2c1CN(CC)CC2 [compound 514, N-(2-Diethylamino-ethyl)-2-(2-ethyl-1,2,3,4-tetrahydro-isoquinolin-8-ylamino)-N-(2-trifluoromethyl-benzyl)-acetamide] | 0.006 µM
CCC(=O)N1CCc2c(cccc2NCC(=O)N(CCN(C)C)Cc2cccc(C(F)(F)F)c2)C1 [Example 33, N-(2-Dimethylamino-ethyl)-2-(2-propionyl-1,2,3,4-tetrahydro-isoquinolin-5-ylamino)-N-(3-trifluoromethyl-benzyl)-acetamide] | 0.016 µM
CN(C)CCN(Cc1ccccc1Br)C(=O)CNc1cccc2c1CCN(CC1CC1)C2 [Example 234, N-(2-Bromo-benzyl)-2-(2-cyclopropylmethyl-1,2,3,4-tetrahydro-isoquinolin-5-ylamino)-N-(2-dimethylamino-ethyl)-acetamide] | 0.003 µM
CCNC(=O)N1CCc2c(cccc2NCC(=O)N(CCNC)Cc2ccccc2C(F)(F)F)C1 [compound 403, 5-({[(2-Methylamino-ethyl)-(2-trifluoromethyl-benzyl)-carbamoyl]-methyl}-amino)-3,4-dihydro-1H-isoquinoline-2-carboxylic acid ethylamide] | 0.024 µM
CN(C)CCN(Cc1ccccc1)C(=O)CNc1cccc2c1CCN(C(=O)OCC(C)(C)C)C2 [compound 127] | 0.395 µM
CC(C)C(=O)N1CCc2cccc(NCC(=O)N(CCN(C)C)Cc3ccccc3)c2C1 [compound 191] | 0.059 µM
CN(CCN(Cc1ncccc1C(F)(F)F)C(=O)CNc1cccc2c1CCN(CC1CC1)C2)C(=O)OC(C)(C)C [Example 215, {2-[[2-(2-Cyclopropylmethyl-1,2,3,4-tetrahydro-isoquinolin-5-ylamino)-acetyl]-(3-trifluoromethyl-pyridin-2-ylmethyl)-amino]-ethyl}-methyl-carbamic acid tert-butyl ester] | 0.108 µM
CCN1CCc2c(CCC(=O)N(CCN(C)C)Cc3ccccc3Cl)cccc2C1 [compound 155, N-(2-Chloro-benzyl)-N-(2-dimethylamino-ethyl)-3-(2-ethyl-1,2,3,4-tetrahydro-isoquinolin-5-yl)-propionamide] | 0.017 µM
CCOC(=O)N1CCc2c(cccc2NCC(=O)N(CCNC)Cc2ccccc2C(F)(F)F)C1 [compound 395, 5-({[(2-Methylamino-ethyl)-(2-trifluoromethyl-benzyl)-carbamoyl]-methyl}-amino)-3,4-dihydro-1H-isoquinoline-2-carboxylic acid ethyl ester] | 0.032 µM
CCN1CCc2c(cccc2N(CC)CC(=O)N(CCN(C)C)Cc2ccccc2)C1 [Example 102, N-Benzyl-N-(2-dimethylamino-ethyl)-2-[ethyl-(2-ethyl-1,2,3,4-tetrahydro-isoquinolin-5-yl)-amino]-acetamide] | 0.37 µM
C=CCN1CCc2cccc(NCC(=O)N(CCN(C)C)Cc3ccccc3C(F)(F)F)c2C1 [compound 466, 2-(2-Allyl-1,2,3,4-tetrahydro-isoquinolin-8-ylamino)-N-(2-dimethylamino-ethyl)-N-(2-trifluoromethyl-benzyl)-acetamide] | 0.013 µM
